Active and inactive are the calls of the source.
How the values were obtained:
[1] = molecular target: T1, Very long-chain specific acyl-CoA dehydrogenase, mitochondrial (Homo sapiens, UniProt P49748)
T1 sequence (P49748 whole entry): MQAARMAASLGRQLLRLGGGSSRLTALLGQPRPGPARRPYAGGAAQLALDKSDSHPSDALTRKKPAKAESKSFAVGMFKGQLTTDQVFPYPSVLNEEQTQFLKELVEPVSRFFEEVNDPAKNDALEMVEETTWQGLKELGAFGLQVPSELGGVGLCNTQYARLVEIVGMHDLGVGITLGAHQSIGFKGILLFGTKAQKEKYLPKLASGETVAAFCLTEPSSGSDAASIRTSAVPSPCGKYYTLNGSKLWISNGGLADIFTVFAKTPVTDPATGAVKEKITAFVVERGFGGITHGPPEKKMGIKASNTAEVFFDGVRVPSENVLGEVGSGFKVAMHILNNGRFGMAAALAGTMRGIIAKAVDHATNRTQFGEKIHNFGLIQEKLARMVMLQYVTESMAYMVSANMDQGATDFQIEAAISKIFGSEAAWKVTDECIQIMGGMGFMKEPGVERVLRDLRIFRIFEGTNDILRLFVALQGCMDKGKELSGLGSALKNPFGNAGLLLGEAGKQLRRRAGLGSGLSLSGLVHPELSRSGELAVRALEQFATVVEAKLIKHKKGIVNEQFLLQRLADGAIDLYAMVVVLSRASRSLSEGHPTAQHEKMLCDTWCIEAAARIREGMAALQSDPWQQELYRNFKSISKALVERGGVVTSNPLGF

[2] = molecular target: T2, Structural maintenance of chromosomes protein 1A (Homo sapiens, UniProt Q14683)
T2 sequence (Q14683 whole entry): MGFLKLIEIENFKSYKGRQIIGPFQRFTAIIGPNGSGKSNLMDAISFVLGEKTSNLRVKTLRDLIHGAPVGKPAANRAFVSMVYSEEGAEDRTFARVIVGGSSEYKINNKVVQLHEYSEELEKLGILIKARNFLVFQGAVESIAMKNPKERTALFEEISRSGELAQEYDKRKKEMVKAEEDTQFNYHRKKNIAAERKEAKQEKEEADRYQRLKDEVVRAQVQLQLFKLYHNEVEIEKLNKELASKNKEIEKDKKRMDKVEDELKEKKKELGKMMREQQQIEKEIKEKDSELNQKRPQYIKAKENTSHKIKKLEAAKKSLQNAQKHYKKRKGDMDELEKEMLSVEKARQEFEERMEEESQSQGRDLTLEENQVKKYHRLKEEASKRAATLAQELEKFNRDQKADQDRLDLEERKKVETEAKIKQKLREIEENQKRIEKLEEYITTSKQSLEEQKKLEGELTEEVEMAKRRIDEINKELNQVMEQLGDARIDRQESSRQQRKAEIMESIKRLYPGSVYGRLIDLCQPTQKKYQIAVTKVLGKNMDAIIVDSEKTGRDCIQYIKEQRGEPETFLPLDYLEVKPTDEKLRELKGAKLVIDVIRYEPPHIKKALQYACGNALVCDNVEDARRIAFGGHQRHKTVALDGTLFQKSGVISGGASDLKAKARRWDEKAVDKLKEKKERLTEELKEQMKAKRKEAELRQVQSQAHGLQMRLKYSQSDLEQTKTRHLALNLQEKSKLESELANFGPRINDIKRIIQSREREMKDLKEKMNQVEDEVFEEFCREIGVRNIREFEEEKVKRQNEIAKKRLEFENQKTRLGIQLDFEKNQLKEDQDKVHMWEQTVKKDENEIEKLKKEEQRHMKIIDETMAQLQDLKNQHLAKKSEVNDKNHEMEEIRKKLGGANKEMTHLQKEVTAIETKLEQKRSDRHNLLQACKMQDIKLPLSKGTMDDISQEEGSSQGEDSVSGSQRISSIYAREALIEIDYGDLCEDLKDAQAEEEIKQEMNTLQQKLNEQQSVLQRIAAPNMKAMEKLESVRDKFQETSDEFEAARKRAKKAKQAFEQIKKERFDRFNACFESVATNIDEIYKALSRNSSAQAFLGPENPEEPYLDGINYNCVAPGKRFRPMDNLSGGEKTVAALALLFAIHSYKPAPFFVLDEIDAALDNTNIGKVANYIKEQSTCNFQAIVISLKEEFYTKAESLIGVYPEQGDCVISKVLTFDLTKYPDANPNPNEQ

[3] = molecular target: Serine/threonine-protein kinase N2 (Homo sapiens, UniProt Q16513)
[4] = molecular target: Atypical kinase COQ8A, mitochondrial (Homo sapiens, UniProt Q8NI60)
[5] = molecular target: cAMP-dependent protein kinase catalytic subunit gamma (Homo sapiens, UniProt P22612)
[6] = molecular target: Tyrosine-protein kinase JAK1 (Homo sapiens, UniProt P23458)
[7] = molecular target: T3, Mitogen-activated protein kinase kinase kinase kinase 3 (Homo sapiens, UniProt Q8IVH8)
T3 sequence (Q8IVH8 whole entry): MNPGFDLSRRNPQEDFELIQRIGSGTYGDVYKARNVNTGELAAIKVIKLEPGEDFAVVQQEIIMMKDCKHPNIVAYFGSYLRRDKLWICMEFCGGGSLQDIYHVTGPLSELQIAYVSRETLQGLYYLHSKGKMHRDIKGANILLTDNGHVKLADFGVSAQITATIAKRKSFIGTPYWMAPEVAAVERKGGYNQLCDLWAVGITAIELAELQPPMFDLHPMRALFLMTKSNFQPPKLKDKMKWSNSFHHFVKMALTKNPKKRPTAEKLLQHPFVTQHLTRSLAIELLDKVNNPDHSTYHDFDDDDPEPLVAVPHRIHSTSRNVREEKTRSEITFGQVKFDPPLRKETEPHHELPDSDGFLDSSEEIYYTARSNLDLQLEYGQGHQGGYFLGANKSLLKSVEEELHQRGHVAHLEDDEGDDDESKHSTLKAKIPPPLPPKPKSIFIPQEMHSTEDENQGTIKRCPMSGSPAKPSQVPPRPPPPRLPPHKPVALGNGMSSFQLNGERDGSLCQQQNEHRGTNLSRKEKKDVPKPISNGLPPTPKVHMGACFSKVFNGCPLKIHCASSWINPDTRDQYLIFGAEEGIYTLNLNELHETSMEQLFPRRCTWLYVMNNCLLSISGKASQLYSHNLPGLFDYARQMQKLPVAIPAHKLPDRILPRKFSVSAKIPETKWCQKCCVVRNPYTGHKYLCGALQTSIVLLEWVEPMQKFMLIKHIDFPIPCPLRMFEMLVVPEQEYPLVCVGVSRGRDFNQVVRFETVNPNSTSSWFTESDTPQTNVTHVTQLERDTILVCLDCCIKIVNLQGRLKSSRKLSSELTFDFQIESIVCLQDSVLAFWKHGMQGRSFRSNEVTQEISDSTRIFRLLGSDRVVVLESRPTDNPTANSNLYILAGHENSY
Note: in the data inactive means no Kd found up to 30 µM.

Chain of Atypical kinase COQ8A, mitochondrial (Q8NI60 whole entry): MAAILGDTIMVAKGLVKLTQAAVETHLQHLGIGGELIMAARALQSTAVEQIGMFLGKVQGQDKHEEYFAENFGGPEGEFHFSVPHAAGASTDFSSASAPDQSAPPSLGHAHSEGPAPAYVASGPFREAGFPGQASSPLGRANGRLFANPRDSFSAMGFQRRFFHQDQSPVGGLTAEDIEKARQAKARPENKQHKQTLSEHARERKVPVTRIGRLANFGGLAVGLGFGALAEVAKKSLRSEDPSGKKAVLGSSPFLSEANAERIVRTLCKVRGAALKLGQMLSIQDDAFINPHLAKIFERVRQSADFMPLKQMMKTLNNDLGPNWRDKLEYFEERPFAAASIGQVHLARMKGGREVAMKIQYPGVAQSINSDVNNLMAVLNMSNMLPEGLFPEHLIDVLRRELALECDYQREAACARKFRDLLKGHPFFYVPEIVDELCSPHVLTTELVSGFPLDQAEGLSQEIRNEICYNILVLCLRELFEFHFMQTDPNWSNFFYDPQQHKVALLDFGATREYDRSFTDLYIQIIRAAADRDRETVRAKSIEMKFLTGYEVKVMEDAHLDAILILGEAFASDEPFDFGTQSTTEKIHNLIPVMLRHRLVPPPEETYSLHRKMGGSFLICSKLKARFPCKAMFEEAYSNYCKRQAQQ
Chain of cAMP-dependent protein kinase catalytic subunit gamma (P22612 whole entry): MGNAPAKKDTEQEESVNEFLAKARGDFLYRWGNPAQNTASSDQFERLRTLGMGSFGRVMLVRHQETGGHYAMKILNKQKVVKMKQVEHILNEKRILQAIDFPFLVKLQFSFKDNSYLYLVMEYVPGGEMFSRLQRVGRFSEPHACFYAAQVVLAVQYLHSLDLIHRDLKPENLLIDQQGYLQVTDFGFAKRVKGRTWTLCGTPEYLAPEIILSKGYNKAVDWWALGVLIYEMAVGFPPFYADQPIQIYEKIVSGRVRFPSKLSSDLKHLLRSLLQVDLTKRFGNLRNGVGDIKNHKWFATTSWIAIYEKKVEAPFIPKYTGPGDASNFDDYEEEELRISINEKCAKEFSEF
Chain of Tyrosine-protein kinase JAK1 (P23458 whole entry): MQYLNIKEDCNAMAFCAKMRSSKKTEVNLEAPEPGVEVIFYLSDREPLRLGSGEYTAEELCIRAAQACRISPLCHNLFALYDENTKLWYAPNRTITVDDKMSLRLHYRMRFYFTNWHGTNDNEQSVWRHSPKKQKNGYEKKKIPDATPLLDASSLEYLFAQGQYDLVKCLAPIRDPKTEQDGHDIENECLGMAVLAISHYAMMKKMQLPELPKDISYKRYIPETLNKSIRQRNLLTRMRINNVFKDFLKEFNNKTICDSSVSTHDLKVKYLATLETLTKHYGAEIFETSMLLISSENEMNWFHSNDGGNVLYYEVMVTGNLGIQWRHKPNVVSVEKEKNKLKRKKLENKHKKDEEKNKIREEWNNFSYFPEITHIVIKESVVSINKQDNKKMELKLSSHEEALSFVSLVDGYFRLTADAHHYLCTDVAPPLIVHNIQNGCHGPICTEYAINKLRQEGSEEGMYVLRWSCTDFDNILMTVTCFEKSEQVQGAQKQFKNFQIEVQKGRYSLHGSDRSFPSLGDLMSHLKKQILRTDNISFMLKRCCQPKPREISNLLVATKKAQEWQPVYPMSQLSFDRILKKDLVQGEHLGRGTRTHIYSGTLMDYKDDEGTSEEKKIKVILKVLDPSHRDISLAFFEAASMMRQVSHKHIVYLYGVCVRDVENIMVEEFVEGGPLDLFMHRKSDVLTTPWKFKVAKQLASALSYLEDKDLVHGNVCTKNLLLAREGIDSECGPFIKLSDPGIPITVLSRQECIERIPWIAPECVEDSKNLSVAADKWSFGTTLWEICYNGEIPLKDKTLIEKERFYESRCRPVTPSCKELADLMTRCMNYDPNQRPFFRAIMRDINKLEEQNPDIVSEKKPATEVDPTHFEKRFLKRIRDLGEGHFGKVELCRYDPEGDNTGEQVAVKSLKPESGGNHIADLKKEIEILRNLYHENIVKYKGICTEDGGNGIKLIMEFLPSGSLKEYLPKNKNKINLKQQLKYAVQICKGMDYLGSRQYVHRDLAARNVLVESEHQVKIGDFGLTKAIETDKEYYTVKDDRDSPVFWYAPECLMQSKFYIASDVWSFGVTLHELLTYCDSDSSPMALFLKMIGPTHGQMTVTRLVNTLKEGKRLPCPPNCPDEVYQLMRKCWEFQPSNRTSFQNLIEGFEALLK
Chain of Serine/threonine-protein kinase N2 (Q16513 whole entry): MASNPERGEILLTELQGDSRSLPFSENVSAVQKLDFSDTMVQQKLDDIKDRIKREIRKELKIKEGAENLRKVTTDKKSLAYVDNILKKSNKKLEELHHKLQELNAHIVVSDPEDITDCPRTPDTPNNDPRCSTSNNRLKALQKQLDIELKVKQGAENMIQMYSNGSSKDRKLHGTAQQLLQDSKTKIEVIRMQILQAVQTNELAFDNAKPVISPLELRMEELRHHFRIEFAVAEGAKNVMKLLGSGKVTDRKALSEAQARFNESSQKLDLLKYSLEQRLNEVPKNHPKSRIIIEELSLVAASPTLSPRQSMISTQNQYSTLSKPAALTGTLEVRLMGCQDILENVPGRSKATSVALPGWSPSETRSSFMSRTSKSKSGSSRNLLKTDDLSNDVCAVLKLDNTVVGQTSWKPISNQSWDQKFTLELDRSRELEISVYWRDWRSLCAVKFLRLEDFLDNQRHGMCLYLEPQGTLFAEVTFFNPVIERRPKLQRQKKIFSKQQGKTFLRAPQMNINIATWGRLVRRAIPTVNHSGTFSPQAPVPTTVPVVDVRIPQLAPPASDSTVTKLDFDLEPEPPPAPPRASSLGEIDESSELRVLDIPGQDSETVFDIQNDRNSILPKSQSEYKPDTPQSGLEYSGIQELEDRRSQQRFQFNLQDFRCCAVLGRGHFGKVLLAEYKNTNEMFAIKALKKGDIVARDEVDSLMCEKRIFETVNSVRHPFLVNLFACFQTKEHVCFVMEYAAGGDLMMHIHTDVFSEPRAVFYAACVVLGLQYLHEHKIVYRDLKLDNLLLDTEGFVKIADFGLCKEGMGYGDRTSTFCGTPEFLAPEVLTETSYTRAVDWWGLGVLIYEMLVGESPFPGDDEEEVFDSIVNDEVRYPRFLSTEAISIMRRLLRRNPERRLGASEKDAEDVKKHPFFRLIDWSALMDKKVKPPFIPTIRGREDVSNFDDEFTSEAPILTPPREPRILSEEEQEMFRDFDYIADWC

| Structure (SMILES) | Kd [1] | Kd [2] | Kd [3] | Kd [4] | Kd [5] | Kd [6] | Kd [7] |
| --- | --- | --- | --- | --- | --- | --- | --- |
| COc1cc(Nc2ncc(F)c(Nc3ccc4c(n3)N(COP(=O)(O)O)C(=O)C(C)(C)O4)n2)cc(OC)c1OC [FOSTAMATINIB] | > 30 µM (inactive) | > 30 µM (inactive) | > 30 µM (inactive) | > 30 µM (inactive) | > 30 µM (inactive) | > 30 µM (inactive) | > 30 µM (inactive) |
| Cc1c(Cn2c(C)nc3c(C(=O)O)cc(N4CCOCC4)cc32)cccc1C(F)(F)F [GSK-2636771] | > 30 µM (inactive) | > 30 µM (inactive) | > 30 µM (inactive) | > 30 µM (inactive) | > 30 µM (inactive) | > 30 µM (inactive) | > 30 µM (inactive) |
| O=S(=O)(c1cccc2c(O)nccc12)N1CCCNCC1 [HYDROXYFASUDIL] | > 30 µM (inactive) | > 30 µM (inactive) | 2.26 µM (active) | > 30 µM (inactive) | > 30 µM (inactive) | > 30 µM (inactive) | > 30 µM (inactive) |
| COc1cc2ncnc3c2cc1OCCCCCN(C)Cc1ccc(Br)cc1N3 [JNJ-26483327] | > 30 µM (inactive) | > 30 µM (inactive) | > 30 µM (inactive) | > 30 µM (inactive) | > 30 µM (inactive) | > 30 µM (inactive) | > 30 µM (inactive) |
| O=C(NOC[C@H](O)CO)c1ccc(F)c(F)c1Nc1ccc(I)cc1F [MIRDAMETINIB] | > 30 µM (inactive) | > 30 µM (inactive) | > 30 µM (inactive) | > 30 µM (inactive) | > 30 µM (inactive) | > 30 µM (inactive) | > 30 µM (inactive) |
| COc1cccc2cc(-c3nc([C@H]4CC[C@H](C(=O)O)CC4)n4ncnc(N)c34)[nH]c12 [OSI-027] | > 30 µM (inactive) | > 30 µM (inactive) | > 30 µM (inactive) | > 30 µM (inactive) | > 30 µM (inactive) | > 30 µM (inactive) | > 30 µM (inactive) |
| C=CC(=O)Nc1cc(Nc2nccc(-c3cn(C)c4ccccc34)n2)c(OC)cc1N(C)CCN(C)C [OSIMERTINIB] | > 30 µM (inactive) | > 30 µM (inactive) | > 30 µM (inactive) | > 30 µM (inactive) | > 30 µM (inactive) | > 30 µM (inactive) | > 30 µM (inactive) |
| FC(F)(F)c1ccc(CNc2ccc(Cc3c[nH]c4ncc(Cl)cc34)cn2)cn1 [PEXIDARTINIB] | > 30 µM (inactive) | > 30 µM (inactive) | > 30 µM (inactive) | > 30 µM (inactive) | > 30 µM (inactive) | > 30 µM (inactive) | > 30 µM (inactive) |
| CC(C)CC(=O)Nc1[nH]nc2c1CN(C(=O)C1CCN(C)CC1)C2(C)C [PHA-793887] | > 30 µM (inactive) | > 30 µM (inactive) | > 30 µM (inactive) | > 30 µM (inactive) | > 30 µM (inactive) | > 30 µM (inactive) | > 30 µM (inactive) |
| O=C(NC[C@H](O)CO)c1ccncc1Nc1ccc(I)cc1F [PIMASERTIB] | > 30 µM (inactive) | > 30 µM (inactive) | > 30 µM (inactive) | > 30 µM (inactive) | > 30 µM (inactive) | > 30 µM (inactive) | > 30 µM (inactive) |
| COCCN1CCN(Cc2ccc(-c3n[nH]c4c3C(=O)c3c(NC(=O)NN5CCOCC5)cccc3-4)cc2)CC1 [RGB-286638] | > 30 µM (inactive) | > 30 µM (inactive) | > 30 µM (inactive) | > 30 µM (inactive) | > 30 µM (inactive) | 0.139 µM (active) | > 30 µM (inactive) |
| C=CC(=O)Nc1cccc(Nc2nc(Nc3ccc(N4CCN(C(C)=O)CC4)cc3OC)ncc2C(F)(F)F)c1 [ROCILETINIB] | > 30 µM (inactive) | > 30 µM (inactive) | > 30 µM (inactive) | > 30 µM (inactive) | > 30 µM (inactive) | > 30 µM (inactive) | > 30 µM (inactive) |
| O=C(O)c1ccc2c(c1)nc(Nc1cccc(Cl)c1)c1ccncc12 [SILMITASERTIB] | > 30 µM (inactive) | > 30 µM (inactive) | > 30 µM (inactive) | > 30 µM (inactive) | > 30 µM (inactive) | > 30 µM (inactive) | > 30 µM (inactive) |
| CC(C)(O)CC(=O)NCCn1ccc2ncnc(Nc3ccc(Oc4cccc(C(F)(F)F)c4)c(Cl)c3)c21 [TAK-285] | > 30 µM (inactive) | > 30 µM (inactive) | > 30 µM (inactive) | > 30 µM (inactive) | > 30 µM (inactive) | > 30 µM (inactive) | > 30 µM (inactive) |
| Cc1cc(C(=O)Nc2cc(Oc3ccc4nc(NC(=O)C5CC5)cn4n3)ccc2C)n(C)n1 [TAK-593] | > 30 µM (inactive) | > 30 µM (inactive) | > 30 µM (inactive) | > 30 µM (inactive) | > 30 µM (inactive) | > 30 µM (inactive) | > 30 µM (inactive) |
| O[C@H]1CC[C@H](Nc2ncc3nc(Nc4c(F)cc(F)cc4F)n([C@H]4CCOC4)c3n2)CC1 [TANZISERTIB] | > 30 µM (inactive) | > 30 µM (inactive) | > 30 µM (inactive) | > 30 µM (inactive) | > 30 µM (inactive) | > 30 µM (inactive) | > 30 µM (inactive) |
| CNC(=O)c1cc(COc2nnc(Nc3ccc(Cl)cc3)c3ccoc23)ccn1 [TELATINIB] | > 30 µM (inactive) | > 30 µM (inactive) | > 30 µM (inactive) | > 30 µM (inactive) | > 30 µM (inactive) | > 30 µM (inactive) | > 30 µM (inactive) |
